Data: patent publication US9550802B2, “Anti-inflammatory macrolides” (priority 2012, dated 2017)

Key:
[1] = system: CF human primary airway epithelial cells (CF hAEC); test: Stimulation of chloride release (Cl efflux, SPQ fluorescence) in cystic fibrosis cells; type: cell-based; settings: 10 μM; CF hAEC or non-CF (S9) cells
Method: CF human primary airway epithelial cells (CF hAEC) on non-CF (S9) were cultured in the presence of compound 1 or azithromycin 10 μM. Cl efflux was monitored by fluorescence of [6-methoxy-N-(3-sulfopronyl)-quinolinium (SPQ).

[2] = Titration of macrolide with organic acid in saline; type: physicochemical; settings: for Vol. Added (mL) Score = 4: acid solution 10 mg/mL in saline added until fully dissolved; for End conc. macrolide: after titration
Method: After each addition, the mixture or solution was placed in the ultrasonic bath for 10 minutes followed by agitation for an additional 10 minutes. The mixtures were given a visual score depending on the presence of precipitate in the mixture (0 to 4, 0 being undissolved and 4 being fully-dissolved) and the pH of the supernatant fluid was measured.

[3] = Maximum solubility determination of organic salts in saline; type: physicochemical; settings: for Visual Score: score 0 to 4
Method: The mixtures were given a visual score depending on the presence of precipitate in the mixture (Score ranges from 0 to 4, with 0 showing undissolved solid precipiate and 4 being fully-dissolved). Solubility of the salts was tested in 10 mM, 100 mM, 500 mM and 1M.

[4] = macrolide (not named) + acid equivalent of organic acid in saline, 100 mM
[5] = macrolide (not named) + acid equivalent of organic acid in saline, 500 mM
[6] = macrolide (not named) + acid equivalent of organic acid in saline, 1M

Amt acid added to dissolve ([2]; 10 mM COMPOUND 1 in saline) [mg] | Amt corr. to mol eq. ([2]; 10 mM COMPOUND 1 in saline) [mg] | mol. eq. acid (minimum mole equivalence of acid needed to dissolve) ([2]; 10 mM COMPOUND 1 in saline) [mol. eq.] | Vol. Added (mL) Score = 4 ([2]; 10 mM COMPOUND 1 in saline) [mL] | End conc. macrolide ([2]; COMPOUND 1 in saline) [mM] | End conc. macrolide ([2]; azithromycin in saline) [mM] | Amt acid added to dissolve ([2]; azithromycin, 10 mM in saline) [mg] | Amt corr. to mol eq. ([2]; azithromycin, 10 mM in saline) [mg] | mol. eq. acid (minimum mole equivalence of acid needed to dissolve) ([2]; azithromycin, 10 mM in saline) [mol. eq.] | Vol. Added (mL) Score = 4 ([2]; azithromycin, 10 mM in saline) [mL] | pH ([3]; macrolide (not named) + acid equivalent of organic acid in saline (0.9% aq. NaCl), 10 mM) | Visual Score ([3]; macrolide (not named) + acid equivalent of organic acid in saline, 10 mM) | pH [3, 4] | Visual Score [3, 4] | pH [3, 5] | Visual Score [3, 5] | pH [3, 6] | Visual Score [3, 6] | SMILES | Cl efflux as determined by fluorescence change (SPQ) [1]
– | – | – | – | – | – | – | – | – | – | – | – | – | – | – | – | – | – | CC[C@H]1OC(=O)[C@H](C)[C@@H](O[C@H]2C[C@@](C)(OC)[C@@H](O)[C@H](C)O2)[C@H](C)[C@@H](O[C@@H]2O[C@H](C)C[C@H](N(C)C)[C@H]2O)[C@](C)(O)C[C@@H](C)CN(C)[C@H](C)[C@@H](O)[C@]1(C)O [azithromycin] | stimulate Cl efflux
4.00 | 4.00 | 0.64 | 0.40 | 9.2 | 8.7 | 8.00 | 8.00 | 1.10 | 0.80 | – | – | – | – | – | – | – | – | O=C(O)CC(=O)C(=O)O [oxaloacetatic acid] | –
8.30 | 8.30 | 1.05 | – | 10.0 | 10.0 | 6.70 | 6.70 | 0.70 | – | 6.8 | 4 | 5.5 | 4 | 8.0 | 4 | 10.0 | 2 | O=C(O)CCCCCCC(=O)O [subaric acid] | –
